Data reported in patent publication US20250327032A1, “AGENT FOR AVOIDING IMMUNE RESPONSE OF TRANSGENIC CELLS” (HYPERION DRUG DISCOVERY CO., LTD., priority 2021, published 2025).

Tests used:
Assay type in all cases: cell-based
[1] = tested on: human mesenchymal stem cells; experiment: Introduction of GFP mRNA by lipofection, yield of GFP-positive cells; conditions: calcitriol 1 μM; GFP mRNA containing pseudouridine instead of uridine, 10 pg/cell
Protocol: (§1) Human mesenchymal stem cells were seeded in a 6-well plate to be about 10,000 cells/cm^2. Human myoblasts were seeded in another 6-well plate to be about 20,000 cells/cm^2. As a culture solution, a basal medium for each cell supplemented with 0.1, 1, or 10 μM of JSH-23 was used. As a control, a basal medium for each cell supplemented with 0.1% (v/v) DMSO instead of JSH-23 was used as a culture solution.
(§2) A lipofection solution was prepared by adding Lipofectamine RNAiMAX and fluorescent protein GFP mRNA to OptiMEM. As the GFP mRNA, that containing uridine or that containing pseudouridine instead of uridine was used. In addition, for those containing pseudouridine, a basal medium for each cell supplemented with 1 μM of JSH-23 was used, and as a control, a basal medium for each cell supplemented with 0.1% (v/v) DMSO instead of JSH-23 was used as a culture solution. It was prepared so that the amount of mRNA was 10 pg/cell for human mesenchymal stem cells and 5 pg/cell for human myoblasts. The prepared lipofection solution was mixed well according to the manufacturer's recommended protocol and allowed to stand at room temperature for about 15 minutes.
(§3) Next, each lipofection solution was added to the plate seeded with human mesenchymal stem cells or human myoblasts, and cultured in a CO2 incubator at 37° C. for about 1 day (18 hours) (human mesenchymal stem cells) or for 2 days (42 hours) (human myoblasts). After culturing, all the culture solution comprising the lipofection solution was removed and replaced with a new culture solution having the same composition as before the addition of the lipofection solution.
(§4) After another 6 hours, the above lipofection solution was newly prepared, added again to the plate seeded with human mesenchymal stem cells or human myoblasts, and cultured in a CO2 incubator at 37° C. for about 1 day (18 hours) (mesenchymal stem cells) or about 2 days (42 hours) (human myoblasts). These steps were repeated so that the introduction of genes was performed a total of 4 times.
(§5) Twenty-four hours after the final introduction of genes, the cells were detached with a cell detachment solution, centrifuged at 600×g for 5 minutes using a centrifuge, to collect the cells. The collected cells were counted using a hemocytometer. Furthermore, the GFP-positive percentage of the collected cells was measured using a flow cytometer. The yield of the number of GFP-positive cells was calculated from the number of cells counted and the GFP-positive rate.
as §1, with “1” for “0.1, 1, or 10”, “calcitriol” for “JSH-23”
(§6) A lipofection solution was prepared by adding Lipofectamine RNAiMAX and fluorescent protein GFP mRNA to OptiMEM. As the GFP mRNA, that containing uridine, or that containing pseudouridine instead of uridine was used. It was prepared so that the amount of mRNA was 10 pg/cell for human mesenchymal stem cells and 5 pg/cell for human myoblasts. The prepared lipofection solution was mixed well according to the manufacturer's recommended protocol and allowed to stand at room temperature for about 15 minutes.

human myoblasts [2] = experiment: as above; conditions: calcitriol 1 μM
Protocol: as §1, §2, §3, §4, §5
as §1, with “1” for “0.1, 1, or 10”, “calcitriol” for “JSH-23”
as §6

human myoblasts [3] = experiment: Introduction of GFP viral vector (polybrene method), yield of GFP-positive cells; conditions: calcitriol 1 μM; viral vector MOI 0.1, 5 or 10, polybrene 0, 5 or 10 μg/mL; depending on the transduction conditions
Protocol: Human mesenchymal stem cells were seeded in a 6-well plate to be about 2,000 cells/cm^2. Human myoblasts were seeded in another 6-well plate to be about 2,000 cells/cm^2. As a culture solution, a basal medium for each cell supplemented with JSH-23 was used. JSH-23 was added at 1 μM to the culture solution used for human mesenchymal stem cells, and at 0.1 μM to the culture solution used for human myoblasts. As a control, a basal medium, i.e., αMEM (+10% serum) for human mesenchymal stem cells and MCDB131 (+10% serum) for human myoblasts, to which 0.1% (v/v) DMSO instead of JSH-23 was added was used as a culture solution.
A mixed solution was prepared by mixing GFP viral vector and a polybrene solution. […]
Next, the above mixed solution was added to the plate seeded with human mesenchymal stem cells or human myoblasts, and cultured in a CO2 incubator at 37° C. for 24 hours.
as §5, with “Four days” for “Twenty-four hours”, “addition” for “final introduction”, “the virus-free culture solution,” for “genes,”, “solution and” for “solution,”, “percentage. […]” for “rate.”

[4] = tested on: human mesenchymal stem cells; experiment: Introduction of GFP mRNA with PEIMAX and other NFκB nuclear translocation inhibitors (Example 13), cell yield; conditions: GFP mRNA 10 pg/cell, PEIMAX
Protocol: Improvement in the yield of transgenic cells was investigated when using the NFκB nuclear translocation inhibitor of the present invention other than JSH-23 and calcitriol. Introduction of genes was performed using vitamin B6, vitamin C, vitamin E, and rolipram as an NFκB nuclear translocation inhibitor other than JSH-23 and calcitriol. The specific procedure is as follows.
Human mesenchymal stem cells were seeded in a 6-well plate to be about 10,000 cells/cm^2. As a culture solution, a basal medium supplemented with vitamin B6 and vitamin E at 2 μM and 10 μM, vitamin C at 20 μM and 100 μM, and rolipram at 10 μM was used. As a control, the basal medium for each cell supplemented with 0.1% (v/v) DMSO instead of each compound was used as a culture solution.
A lipofection solution was prepared by adding PEIMAX and fluorescent protein GFP mRNA to OptiMEM. It was prepared so that the amount of mRNA was 10 pg/cell. […]
as §5, with “cells. In addition, the” for “cells. The”, “GFP-positive percentage.” for “GFP-positive rate.”

C=C1/C(=C\C=C2/CCC[C@]3(C)[C@@H]([C@H](C)CCCC(C)(C)O)CC[C@@H]23)C[C@@H](O)C[C@@H]1O [calcitriol]
yield of GFP-positive cells compared to the control (control set to 1) [1]: ≥ 2.7 times
yield of GFP-positive cells compared to the control (control set to 1) (human myoblasts [2]; GFP mRNA containing pseudouridine instead of uridine, 5 pg/cell): ≥ 4 times
yield of GFP-positive cells compared to the control (control set to 1) (human myoblasts [2]; GFP mRNA containing uridine, 5 pg/cell, second statement of b89): ≥ 5 times
yield of GFP-positive cells compared to the control (control set to 1) (human myoblasts [2]; GFP mRNA containing uridine, first statement of b89, printed as human myoblasts): ≥ 7 times
increase of the number of GFP-positive cells by adding calcitriol (human myoblasts [3]): about 4.5 times

COc1ccc(C2CNC(=O)C2)cc1OC1CCCC1 (stereo not shown) [rolipram]
number of viable cells after introduction of genes relative to control (set to 1) ([4]; compound at 10 μM): about 1.3 times

Cc1ncc(CO)c(CO)c1O.Cl [vitamin B6]
number of viable cells after introduction of genes relative to control (set to 1) ([4]; compound at 2 μM and 10 μM): about 1.2 times
